Results from PMC8713164, “Development of a 1,2,4-Triazole-Based Lead Tankyrase Inhibitor: Part II” (Journal of Medicinal Chemistry, 2021).
pIC50: −log10 of the molar value. Where two headings read alike, the source gives them in different places.

Key:
[1] = molecular target: T1, TNKS2 (Homo sapiens, UniProt Q9H2K2); assay: TNKS2 biochemical assay (unreacted NAD+ fluorescence)
T1 construct: TNKS2 (residues 873–1162); made in house
T1 sequence (Q9H2K2 873-1162): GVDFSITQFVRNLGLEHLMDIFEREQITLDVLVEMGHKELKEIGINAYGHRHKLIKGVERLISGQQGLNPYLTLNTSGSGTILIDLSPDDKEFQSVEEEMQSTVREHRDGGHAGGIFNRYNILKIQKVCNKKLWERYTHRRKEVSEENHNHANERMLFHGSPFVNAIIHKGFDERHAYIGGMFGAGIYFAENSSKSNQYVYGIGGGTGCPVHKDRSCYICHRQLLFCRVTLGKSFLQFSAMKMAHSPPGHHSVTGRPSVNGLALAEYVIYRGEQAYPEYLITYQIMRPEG
Protocol: New compounds were prepared in half-log dilution series, and the reactions were carried out in quadruplicates with protein and compound controls to exclude the effect of compound autofluorescence. All reactions were performed at ambient temperature. TNKS1 (20 nM) or TNKS2 (5 nM) was incubated for 20 h in assay buffer (50 mM Bis-Tris propane (BTP), pH 7.0, 0.5 mM Tris(2-carboxyethyl)phosphine (TCEP), 0.01% Triton X-100) with compound and 10 μM or 500 nM NAD^+, respectively.

[2] = molecular target: T2, PARP4 (Homo sapiens, UniProt Q9UKK3); assay: PARP4 biochemical assay; settings: > under 50% inhibition
T2 construct: made in house
T2 sequence (Q9UKK3 whole entry): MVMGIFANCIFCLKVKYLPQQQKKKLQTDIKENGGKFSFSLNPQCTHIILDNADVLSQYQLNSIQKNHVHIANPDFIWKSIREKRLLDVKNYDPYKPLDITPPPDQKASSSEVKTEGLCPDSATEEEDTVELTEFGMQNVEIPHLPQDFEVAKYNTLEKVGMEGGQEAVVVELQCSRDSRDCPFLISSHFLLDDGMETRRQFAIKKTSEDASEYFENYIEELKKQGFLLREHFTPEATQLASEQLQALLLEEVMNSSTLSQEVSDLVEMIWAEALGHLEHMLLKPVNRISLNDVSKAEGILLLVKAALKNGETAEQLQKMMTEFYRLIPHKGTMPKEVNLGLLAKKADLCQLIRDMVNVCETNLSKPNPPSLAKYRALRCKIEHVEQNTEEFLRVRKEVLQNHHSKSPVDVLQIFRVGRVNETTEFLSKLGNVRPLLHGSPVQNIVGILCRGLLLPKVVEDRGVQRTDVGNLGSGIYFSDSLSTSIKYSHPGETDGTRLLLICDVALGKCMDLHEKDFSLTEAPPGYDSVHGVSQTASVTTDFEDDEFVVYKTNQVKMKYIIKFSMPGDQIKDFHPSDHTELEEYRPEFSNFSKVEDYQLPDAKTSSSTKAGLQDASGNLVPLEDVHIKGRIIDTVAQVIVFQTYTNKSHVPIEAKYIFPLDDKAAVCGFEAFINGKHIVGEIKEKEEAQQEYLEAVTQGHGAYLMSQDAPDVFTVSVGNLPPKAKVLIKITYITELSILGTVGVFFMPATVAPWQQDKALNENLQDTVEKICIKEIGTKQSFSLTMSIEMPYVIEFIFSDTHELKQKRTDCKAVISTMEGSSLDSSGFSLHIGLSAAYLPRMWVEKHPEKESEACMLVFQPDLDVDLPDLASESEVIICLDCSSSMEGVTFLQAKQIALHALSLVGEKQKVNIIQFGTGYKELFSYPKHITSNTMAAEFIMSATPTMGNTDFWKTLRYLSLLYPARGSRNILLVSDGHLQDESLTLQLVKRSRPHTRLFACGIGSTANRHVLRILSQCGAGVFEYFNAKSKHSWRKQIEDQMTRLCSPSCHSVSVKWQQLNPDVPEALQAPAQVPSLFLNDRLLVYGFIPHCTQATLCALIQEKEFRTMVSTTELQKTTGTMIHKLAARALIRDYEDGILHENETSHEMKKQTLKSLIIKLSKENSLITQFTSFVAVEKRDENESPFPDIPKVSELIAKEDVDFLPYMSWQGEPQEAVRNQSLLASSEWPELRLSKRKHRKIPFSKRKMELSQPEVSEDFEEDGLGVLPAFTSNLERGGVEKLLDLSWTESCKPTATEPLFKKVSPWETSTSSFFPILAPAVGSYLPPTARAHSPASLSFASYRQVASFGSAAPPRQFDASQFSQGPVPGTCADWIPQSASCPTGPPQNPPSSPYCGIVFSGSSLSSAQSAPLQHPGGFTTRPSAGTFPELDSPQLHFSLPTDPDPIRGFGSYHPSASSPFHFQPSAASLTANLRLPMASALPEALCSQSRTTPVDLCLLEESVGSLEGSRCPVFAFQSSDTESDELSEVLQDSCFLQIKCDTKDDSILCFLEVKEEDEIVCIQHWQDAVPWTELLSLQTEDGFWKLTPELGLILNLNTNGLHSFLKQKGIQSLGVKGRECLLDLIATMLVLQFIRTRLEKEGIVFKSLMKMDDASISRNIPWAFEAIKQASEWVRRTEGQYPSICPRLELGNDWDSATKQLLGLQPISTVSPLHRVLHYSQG
Protocol: (§1) All reactions were performed at ambient temperature.
(§2) The assay conditions for the other PARP enzymes were used as previously described.[39]

[3] = microsomal stability, mouse; type: in vitro ADME; settings: microsomes
Protocol: Kinetic solubility, microsomal stability, and plasma stability were determined following our internal protocol (Symeres). The Caco-2 and PPB determinations were performed by Cyprotex.

[4] = molecular target: PARP1/2/3/4/10/12/14/15; assay: PARP enzyme panel, summary line of Table 5; type: biochemical; settings: one bound for all eight PARPs
Protocol: as §1, §2

[5] = system: WNT/β-catenin signaling; assay: cellular (HEK293) WNT/β-catenin signaling luciferase reporter assay; type: cell-based, human
[6] = system: Cerep Safety panel 44 targets; assay: Cerep safety panel of 44 selected targets; settings: 10 μM
Protocol: A safety panel (Cerep) of 44 selected targets (n = 2) including hERG Inhibition using 10 μM 24 was performed by Eurofins. Ames and CYP3A4 inhibition assays were performed by Cyprotex, and the PXR assay (CYP induction) was performed at Admescope. The PARP assays are described below.

**Q.** With `CCOc1ccc(-c2nnc([C@H]3C[C@H](NC(=O)c4cccc5nccnc45)C3)n2-c2ccccc2F)nc1` [Compound 24, N-(trans-3-(5-(5-Ethoxypyridin-2-yl)-4-(2-fluorophenyl)-4H-1,2,4-triazol-3-yl)cyclobutyl)quinoxaline-5-carboxamide] as the compound, how does the pIC50 ([1]; IC50 TNKS2) read?
**A.** The pIC50 was 8.74.

**Q.** And the pIC50 ([1]; IC50 TNKS2, TNKS2 5 nM, 500 nM NAD+, 20 h, quadruplicates, 95% confidence intervals in parentheses, 24: averages of multiple independent measurements)?
**A.** The pIC50 was 8.80.

**Q.** And the “TNKS2 pIC50 ± SEM” value ([1]; TNKS2 5 nM, 500 nM NAD+, 20 h)?
**A.** Its value is 2.0 (8.71 ± 0.069).

**Q.** What about the pIC50 ([1]; TNKS2 pIC50 ± SEM, TNKS2 5 nM, 500 nM NAD+, 20 h) of the same compound?
**A.** Its pIC50 is 8.79.

**Q.** And the pIC50 ([1]; read-out: IC50 TNKS2)?
**A.** Its pIC50 is 8.70.

**Q.** And the pIC50 [2]?
**A.** Its pIC50 is less than 4.00.

**Q.** And the microsomal CLint at 1 h [3]?
**A.** The microsomal CLint at 1 h was 22 µL/min/mg.

**Q.** What about the pIC50 [4] of the same compound?
**A.** The pIC50 was less than 5.00.

**Q.** What about the IC50 ([5]; Homo sapiens, HEK293, read-out: HEK293 reporter assay pIC50 ± SEM (converted)) of the same compound?
**A.** The IC50 was 0.603 nM.

**Q.** What about the pIC50 ([5]; Homo sapiens, HEK293, read-out: IC50 HEK293, HEK293 WNT/β-catenin signaling reporter assay, triplicates, 24: averages of multiple independent measurements) of the same compound?
**A.** Its pIC50 is 9.20.

**Q.** What about the “efficacy in the cellular WNT/β-catenin signaling reporter assay relative to 1” value ([5]; times higher than 1) of the same compound?
**A.** The value was “approximately 30 times”.

**Q.** And the “Cerep Safety panel 44 targets (overall result)” value [6]?
**A.** Its value is “clean”.

**Q.** What about the “Cerep Safety panel 44 targets inhibition, all targets” value ([6]; n = 2) of the same compound?
**A.** The value was less than 50%.
